Source: patent publication US20230365592A1 (Agios Pharmaceuticals, Inc., priority 2022, published 2023)

Each molecule was assayed against T1, human PAH with the R408W mutation (Homo sapiens, UniProt P00439, R408W) (assay: Cell Based Phenylalanine Flux Assay). Conditions: A375 cells expressing R408W PAH; 24 hrs with compound, then 20 µM sepiapterin and 800 µM 13C9,15N-Phenylalanine for 4 hours; 13C-Tyrosine by LC-MS; average where tested multiple times; read-out: AC50.
T1 construct: expressed in transfected cells
T1 sequence (P00439 1-452 R408W): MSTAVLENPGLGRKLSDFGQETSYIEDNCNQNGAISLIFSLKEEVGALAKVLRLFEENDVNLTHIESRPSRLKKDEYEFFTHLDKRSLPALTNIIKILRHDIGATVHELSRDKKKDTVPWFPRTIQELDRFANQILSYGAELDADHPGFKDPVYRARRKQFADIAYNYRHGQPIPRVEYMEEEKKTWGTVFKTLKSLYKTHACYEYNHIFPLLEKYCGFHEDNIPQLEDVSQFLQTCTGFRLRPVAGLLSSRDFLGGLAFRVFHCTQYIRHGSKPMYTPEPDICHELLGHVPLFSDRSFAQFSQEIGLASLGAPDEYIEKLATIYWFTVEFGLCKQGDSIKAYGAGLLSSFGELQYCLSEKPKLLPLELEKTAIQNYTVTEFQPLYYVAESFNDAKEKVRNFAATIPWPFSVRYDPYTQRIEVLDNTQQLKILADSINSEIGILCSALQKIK
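Note: after compound treatment, cells received sepiapterin plus isotope-labelled Phenylalanine for 4 hours, then labelled Tyrosine in the medium was quantified, 10-point 2-fold dilution series run in duplicate.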

SMILES | AC50 [nM]
Cc1nnc(N2CCc3[nH]cnc3C2c2cc3c(C(F)(F)F)cccn3n2)o1 (stereo not shown) | 1000 to 5000
FC(F)c1cccn2nc(C3c4nc[nH]c4CCN3c3nc4ccccc4o3)cc12 (stereo not shown) | > 5000
Cc1ccn2nc(C3c4nc[nH]c4CCN3C(=O)c3nnc(-c4ccn(C)n4)o3)cc2c1 (stereo not shown) | 1000 to 5000
Cc1cccn2nc(C3c4nc[nH]c4CCN3C(=O)c3cnc(-c4ncccn4)o3)cc12 (stereo not shown) | 1000 to 5000
O=C(c1nnc(-c2cnn(C(F)(F)F)c2)o1)N1CCc2[nH]cnc2C1c1cc2c(OC(F)(F)F)cccn2n1 (stereo not shown) | 1000 to 5000
O=C(c1nnc(C2CC(F)(F)C2)o1)N1CCc2[nH]cnc2[C@H]1c1cc2cccc(F)n2n1 (single isomer, unassigned) | 1000 to 5000

Next, values leading:

AC50 [nM] | SMILES
1000 to 5000 | c1cncc(-c2nnc(N3CCc4[nH]cnc4C3c3cc4ccccn4n3)o2)c1 (stereo not shown)
1000 to 5000 | Cc1nnc(C(=O)N2CCc3[nH]cnc3C2c2cc3c(F)cccn3n2)o1 (stereo not shown)
> 5000 | Cc1cccn2nc(C3c4nc[nH]c4CCN3c3nnc(C(C)(C)F)o3)cc12 (stereo not shown)

Same assay, conditions: A375 cells expressing human PAH R408W; 24 hrs compound incubation; 13C-Tyrosine by LC-MS; average where tested multiple times; read-out: AC50

SMILES | AC50 [nM]
O=C(c1ocnc1C1CC1)N1CCc2[nH]cnc2[C@H]1c1cc2c(C(F)(F)F)cccn2n1 [Example 2014, (S)-(4-cyclopropyloxazol-5-yl)(4-(4-(trifluoromethyl)pyrazolo[1,5-a]pyridin-2-yl)-1,4,6,7-tetrahydro-5H-imidazo[4,5-c]pyridin-5-yl)methanone] | < 500
FC(F)c1cccn2nc([C@@H]3c4nc[nH]c4CCN3c3ccccn3)cc12 [Example 1979, (S)-4-(4-(difluoromethyl)pyrazolo[1,5-a]pyridin-2-yl)-5-(pyridin-2-yl)-4,5,6,7-tetrahydro-1H-imidazo[4,5-c]pyridine] | < 500
Cc1cccn2nc([C@@H]3c4nc[nH]c4CCN3C(=O)c3nnc(-c4cnn(C)c4)s3)cc12 [Example 2047, (S)-(5-(1-methyl-1H-pyrazol-4-yl)-1,3,4-thiadiazol-2-yl)(4-(4-methylpyrazolo[1,5-a]pyridin-2-yl)-1,4,6,7-tetrahydro-5H-imidazo[4,5-c]pyridin-5-yl)methanone] | 500 to 1000
CC(C)c1cccn2nc([C@H]3c4nc[nH]c4CCN3C(=O)c3nnc(-c4ccn(C)n4)o3)cc12 [Example 1950, (R)-(4-(4-isopropylpyrazolo[1,5-a]pyridin-2-yl)-1,4,6,7-tetrahydro-5H-imidazo[4,5-c]pyridin-5-yl)(5-(1-methyl-1H-pyrazol-3-yl)-1,3,4-oxadiazol-2-yl)methanone] | > 5000

Now from value to molecule:

AC50 [nM] | SMILES
< 500 | COc1cccn2nc([C@@H]3c4nc[nH]c4CCN3c3ncc(C(F)(F)F)cn3)cc12 [Example 2200, (S)-4-(4-methoxypyrazolo[1,5-a]pyridin-2-yl)-5-(5-(trifluoromethyl)pyrimidin-2-yl)-4,5,6,7-tetrahydro-1H-imidazo[4,5-c]pyridine]
< 500 | CC(C)c1cccn2nc([C@@H]3c4nc[nH]c4CCN3C(=O)c3nnc(-c4ccn(C(F)(F)F)n4)o3)cc12 [Example 1984, (S)-(4-(4-isopropylpyrazolo[1,5-a]pyridin-2-yl)-1,4,6,7-tetrahydro-5H-imidazo[4,5-c]pyridin-5-yl)(5-(1-(trifluoromethyl)-1H-pyrazol-3-yl)-1,3,4-oxadiazol-2-yl)methanone]
1000 to 5000 | Cn1nc(C(F)(F)F)nc1C(=O)N1CCc2[nH]cnc2[C@H]1c1cc2cccc(Cl)n2n1 [Example 2412, (S)-(4-(7-chloropyrazolo[1,5-a]pyridin-2-yl)-6,7-dihydro-1H-imidazo[4,5-c]pyridin-5(4H)-yl)(1-methyl-3-(trifluoromethyl)-1H-1,2,4-triazol-5-yl)methanone]
500 to 1000 | CC(C)c1nnc(N2CCc3[nH]cnc3[C@H]2c2cc3c(C(F)(F)F)cccn3n2)o1 [Example 2305, (S)-2-isopropyl-5-(4-(4-(trifluoromethyl)pyrazolo[1,5-a]pyridin-2-yl)-1,4,6,7-tetrahydro-5H-imidazo[4,5-c]pyridin-5-yl)-1,3,4-oxadiazole]

Same assay, conditions: A375 cells expressing human R408W PAH; 24 hrs compound incubation; 13C-Tyrosine by LC-MS; average where tested multiple times; read-out: AC50

SMILES | AC50 [nM]
COc1ccc2c(C(=O)N3CCc4[nH]cnc4[C@H]3c3cc4cccc(F)n4n3)cnn2c1 [Example 1720, (S)-(4-(7-fluoropyrazolo[1,5-a]pyridin-2-yl)-6,7-dihydro-1H-imidazo[4,5-c]pyridin-5(4H)-yl)(6-methoxypyrazolo[1,5-a]pyridin-3-yl)methanone] | 500 to 1000
Cn1cc(-c2nnc(C(=O)N3CCc4[nH]cnc4[C@@H]3c3cc4c(C(F)(F)F)cccn4n3)o2)cn1 [Example 829, (R)-(5-(1-methyl-1H-pyrazol-4-yl)-1,3,4-oxadiazol-2-yl)(4-(4-(trifluoromethyl)pyrazolo[1,5-a]pyridin-2-yl)-6,7-dihydro-1H-imidazo[4,5-c]pyridin-5(4H)-yl)methanone] | > 5000
Cc1cccc2cc([C@H]3c4nc[nH]c4CCN3C(=O)c3nnc(C(C)C)o3)nn12 [Example 1491, (R)-(5-isopropyl-1,3,4-oxadiazol-2-yl)(4-(7-methylpyrazolo[1,5-a]pyridin-2-yl)-6,7-dihydro-1H-imidazo[4,5-c]pyridin-5(4H)-yl)methanone] | 1000 to 5000
COc1cccn2nc([C@@H]3c4nc[nH]c4CCN3C(=O)c3nnc(-c4ccn(C(F)F)n4)o3)cc12 [Example 1723, (S)-(5-(1-(difluoromethyl)-1H-pyrazol-3-yl)-1,3,4-oxadiazol-2-yl)(4-(4-methoxypyrazolo[1,5-a]pyridin-2-yl)-6,7-dihydro-1H-imidazo[4,5-c]pyridin-5(4H)-yl)methanone] | 500 to 1000
O=C(c1oc(C2CC2)nc1C(F)F)N1CCc2[nH]cnc2[C@@H]1c1cc2ccccn2n1 [Example 633, (R)-(2-cyclopropyl-4-(difluoromethyl)oxazol-5-yl)(4-(pyrazolo[1,5-a]pyridin-2-yl)-6,7-dihydro-1H-imidazo[4,5-c]pyridin-5(4H)-yl)methanone] | > 5000
O=C(c1oc(C2(O)CC2)nc1C(F)F)N1CCc2[nH]cnc2[C@H]1c1cc2c(C(F)(F)F)cccn2n1 [Example 1222, (S)-(4-(difluoromethyl)-2-(1-hydroxycyclopropyl)oxazol-5-yl)(4-(4-(trifluoromethyl)pyrazolo[1,5-a]pyridin-2-yl)-6,7-dihydro-1H-imidazo[4,5-c]pyridin-5(4H)-yl)methanone] | < 500
O=C(c1nnc(-c2ccn(C(F)F)n2)o1)N1CCc2[nH]cnc2[C@@H]1c1cc2cccc(C(F)(F)F)n2n1 [Example 1037, (R)-(5-(1-(difluoromethyl)-1H-pyrazol-3-yl)-1,3,4-oxadiazol-2-yl)(4-(7-(trifluoromethyl)pyrazolo[1,5-a]pyridin-2-yl)-6,7-dihydro-1H-imidazo[4,5-c]pyridin-5(4H)-yl)methanone] | > 5000
O=C(c1nnc(-c2ccn(C(F)(F)F)n2)o1)N1CCc2[nH]cnc2[C@H]1c1cc2c(C(F)F)cccn2n1 [Example 1480, (S)-(4-(4-(difluoromethyl)pyrazolo[1,5-a]pyridin-2-yl)-6,7-dihydro-1H-imidazo[4,5-c]pyridin-5(4H)-yl)(5-(1-(trifluoromethyl)-1H-pyrazol-3-yl)-1,3,4-oxadiazol-2-yl)methanone] | < 500

Continued, values first:

AC50 [nM] | SMILES
> 5000 | Cc1cccc(-c2nnc(C(=O)N3CCc4[nH]cnc4[C@@H]3c3cc4ccccn4n3)o2)n1 [Example 1383, (R)-(5-(6-methylpyridin-2-yl)-1,3,4-oxadiazol-2-yl)(4-(pyrazolo[1,5-a]pyridin-2-yl)-6,7-dihydro-1H-imidazo[4,5-c]pyridin-5(4H)-yl)methanone]
> 5000 | Cn1cncc1-c1nc(C(F)F)c(C(=O)N2CCc3[nH]cnc3[C@@H]2c2cc3ccccn3n2)o1 [Example 868, (R)-(4-(difluoromethyl)-2-(1-methyl-1H-imidazol-5-yl)oxazol-5-yl)(4-(pyrazolo[1,5-a]pyridin-2-yl)-6,7-dihydro-1H-imidazo[4,5-c]pyridin-5(4H)-yl)methanone]
500 to 1000 | Cc1cccn2nc([C@H]3c4nc[nH]c4CCN3C(=O)c3cnn4ccccc34)cc12 [Example 1287, (R)-(4-(4-methylpyrazolo[1,5-a]pyridin-2-yl)-6,7-dihydro-1H-imidazo[4,5-c]pyridin-5(4H)-yl)(pyrazolo[1,5-a]pyridin-3-yl)methanone]
500 to 1000 | Cn1ncnc1C(=O)N1CCc2[nH]cnc2[C@H]1c1cc2c(F)cccn2n1 [Example 840, (S)-(4-(4-fluoropyrazolo[1,5-a]pyridin-2-yl)-6,7-dihydro-1H-imidazo[4,5-c]pyridin-5(4H)-yl)(1-methyl-1H-1,2,4-triazol-5-yl)methanone]
< 500 | Cn1ccc(-c2nnc(C(=O)N3CCc4[nH]cnc4[C@H]3c3cc4cccc(F)n4n3)o2)n1 [Example 1456, (S)-(4-(7-fluoropyrazolo[1,5-a]pyridin-2-yl)-6,7-dihydro-1H-imidazo[4,5-c]pyridin-5(4H)-yl)(5-(1-methyl-1H-pyrazol-3-yl)-1,3,4-oxadiazol-2-yl)methanone]
< 500 | CC(C)(C)c1nnc(C(=O)N2CCc3[nH]cnc3[C@H]2c2cc3cccc(F)n3n2)o1 [Example 1249, (S)-(5-(tert-butyl)-1,3,4-oxadiazol-2-yl)(4-(7-fluoropyrazolo[1,5-a]pyridin-2-yl)-6,7-dihydro-1H-imidazo[4,5-c]pyridin-5(4H)-yl)methanone]
